System: LG0703-F948-PDC spheroids with HUVEC/MSC, viability
Experiment: Anticancer human tumor LG0703-F948-PDC patient-derived lung adenocarcinoma cell line growth inhibition [IpAb]
Settings: for IC50: curve of first compound; for viability, T/C: stronger effect = lower value
In short: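 Combinations with ipatasertib or abemaciclib were tested on tumour spheroids holding HUVEC (25%) and MSC (15%) alongside 60% malignant cells. Top concentration was at or near clinical Cmax (10 microM if undefined), descending in half-log steps.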

[1] = second compound 0.1 µM, first compound 0.0316 µM
[2] = second compound 0.1 µM, first compound 0.1 µM
[3] = second compound 0.1 µM, first compound 0.316 µM
[4] = second compound 0.1 µM, first compound 1 µM
[5] = second compound 0.1 µM, first compound 3.16 µM
[6] = second compound 0.1 µM, first compound 10 µM
[7] = second compound 0.316 µM, first compound 0.0316 µM
[8] = second compound 0.316 µM, first compound 0.1 µM
[9] = second compound 0.316 µM, first compound 0.316 µM
[10] = second compound 0.316 µM, first compound 1 µM
[11] = second compound 0.316 µM, first compound 3.16 µM
[12] = second compound 0.316 µM, first compound 10 µM
[13] = second compound 1 µM, first compound 0.0316 µM
[14] = second compound 1 µM, first compound 0.1 µM
[15] = second compound 1 µM, first compound 0.316 µM
[16] = second compound 1 µM, first compound 1 µM
[17] = second compound 1 µM, first compound 3.16 µM
[18] = second compound 1 µM, first compound 10 µM
[19] = second compound 3.16 µM, first compound 0.0316 µM
[20] = second compound 3.16 µM, first compound 0.1 µM
[21] = second compound 3.16 µM, first compound 0.316 µM
[22] = second compound 3.16 µM, first compound 1 µM
[23] = second compound 3.16 µM, first compound 3.16 µM
[24] = second compound 3.16 µM, first compound 10 µM
[25] = second compound 10 µM, first compound 0.0316 µM
[26] = second compound 10 µM, first compound 0.1 µM
[27] = second compound 10 µM, first compound 0.316 µM
[28] = second compound 10 µM, first compound 1 µM
[29] = second compound 10 µM, first compound 3.16 µM
[30] = second compound 10 µM, first compound 10 µM
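Also: spheroids exposed to compounds for seven days before readout.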
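For viability, T/C in this document: T/C percent relative to DMSO vehicle wells set as 100% viability.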

With `C=CC(=O)N1CCN(c2nc(=O)n(-c3c(C)ccnc3C(C)C)c3nc(-c4c(O)cccc4F)c(F)cc23)C(C)C1` (stereo not given) + CC(C)NCC(C(=O)N1CCN(c2ncnc3c2C(C)CC3O)CC1)c1ccc(Cl)cc1 the IC50 (second compound 0.1 µM) was greater than 10000 nM, the IC50 (second compound 0.316 µM) was greater than 10000 nM and the IC50 (second compound 1 µM) was 3340 nM. The IC50 (second compound 3.16 µM) was less than 31.6 nM, the IC50 (second compound 10 µM) was less than 31.6 nM and the viability, T/C [1] was 87.5%. For the same compound, the viability, T/C [2] was 86.1%, the viability, T/C [3] was 92.7% and the viability, T/C [4] was 91.1%. It also gave a viability, T/C [5] of 90.6%, a viability, T/C [6] of 54.3% and a viability, T/C [7] of 64.5%. The viability, T/C [8] was 67.1%, the viability, T/C [9] was 62.6% and the viability, T/C [10] was 71.6%. It also gave a viability, T/C [11] of 73.5%, a viability, T/C [12] of 46.4% and a viability, T/C [13] of 54.9%. For the same compound, the viability, T/C [14] was 56.5%, the viability, T/C [15] was 58% and the viability, T/C [16] was 54.4%. It also gave a viability, T/C [17] of 50.8%, a viability, T/C [18] of 34.5% and a viability, T/C [19] of 44.5%. The viability, T/C [20] was 52.9%, the viability, T/C [21] was 48.5% and the viability, T/C [22] was 47%. For the same compound, the viability, T/C [23] was 45.6%, the viability, T/C [24] was 30.7% and the viability, T/C [25] was 40%. The viability, T/C [26] was 39%, the viability, T/C [27] was 40.9% and the viability, T/C [28] was 42.7%. For the same compound, the viability, T/C [29] was 38.1% and the viability, T/C [30] was 22.5%.
In the case of `CC(C)(C)c1cnc(CSc2cnc(NC(=O)C3CCNCC3)s2)o1` + CC(C)NCC(C(=O)N1CCN(c2ncnc3c2C(C)CC3O)CC1)c1ccc(Cl)cc1, the IC50 (second compound 0.1 µM) is reported as 74.3 nM, the IC50 (second compound 0.316 µM) is reported as 36.9 nM and the IC50 (second compound 1 µM) is reported as 15.5 nM. The IC50 (second compound 3.16 µM) was less than 9.49 nM, the IC50 (second compound 10 µM) was less than 9.49 nM and the viability, T/C (second compound 0.1 µM, first compound 0.00949 µM) was 78.5%. The viability, T/C (second compound 0.1 µM, first compound 0.03 µM) was 74%, the viability, T/C (second compound 0.1 µM, first compound 0.0949 µM) was 43.3% and the viability, T/C (second compound 0.1 µM, first compound 0.3 µM) was 0.48%. It also gave a viability, T/C (second compound 0.1 µM, first compound 0.949 µM) of 0.41%, a viability, T/C (second compound 0.1 µM, first compound 3 µM) of 0.23% and a viability, T/C (second compound 0.316 µM, first compound 0.00949 µM) of 61.5%. It also gave a viability, T/C (second compound 0.316 µM, first compound 0.03 µM) of 51.2%, a viability, T/C (second compound 0.316 µM, first compound 0.0949 µM) of 30.8% and a viability, T/C (second compound 0.316 µM, first compound 0.3 µM) of 0.34%. The viability, T/C (second compound 0.316 µM, first compound 0.949 µM) was 0.3%, the viability, T/C (second compound 0.316 µM, first compound 3 µM) was 0.29% and the viability, T/C (second compound 1 µM, first compound 0.00949 µM) was 52%. For the same compound, the viability, T/C (second compound 1 µM, first compound 0.03 µM) was 47.5%, the viability, T/C (second compound 1 µM, first compound 0.0949 µM) was 24.2% and the viability, T/C (second compound 1 µM, first compound 0.3 µM) was 0.43%. For the same compound, the viability, T/C (second compound 1 µM, first compound 0.949 µM) was 0.34%, the viability, T/C (second compound 1 µM, first compound 3 µM) was 0.31% and the viability, T/C (second compound 3.16 µM, first compound 0.00949 µM) was 44.7%. For the same compound, the viability, T/C (second compound 3.16 µM, first compound 0.03 µM) was 37.4%, the viability, T/C (second compound 3.16 µM, first compound 0.0949 µM) was 15.4% and the viability, T/C (second compound 3.16 µM, first compound 0.3 µM) was 0.55%. It also gave a viability, T/C (second compound 3.16 µM, first compound 0.949 µM) of 1.3%, a viability, T/C (second compound 3.16 µM, first compound 3 µM) of 0.69% and a viability, T/C (second compound 10 µM, first compound 0.00949 µM) of 35.1%. It also gave a viability, T/C (second compound 10 µM, first compound 0.03 µM) of 31.5%, a viability, T/C (second compound 10 µM, first compound 0.0949 µM) of 28.2% and a viability, T/C (second compound 10 µM, first compound 0.3 µM) of 1.21%. For the same compound, the viability, T/C (second compound 10 µM, first compound 0.949 µM) was 0.81% and the viability, T/C (second compound 10 µM, first compound 3 µM) was 0.34%.
Work on `Cn1ncc(Cl)c1-c1cc(C(=O)NC(CN)Cc2cccc(F)c2)sc1Cl` (stereo not given) + CC(C)NCC(C(=O)N1CCN(c2ncnc3c2C(C)CC3O)CC1)c1ccc(Cl)cc1 yielded an IC50 (second compound 0.1 µM) of 714 nM, an IC50 (second compound 0.316 µM) of 925 nM and an IC50 (second compound 1 µM) of 522 nM. It also gave an IC50 (second compound 3.16 µM) of less than 31.6 nM, an IC50 (second compound 10 µM) of less than 31.6 nM and a viability, T/C [1] of 75.9%. It also gave a viability, T/C [2] of 75.1%, a viability, T/C [3] of 53.7% and a viability, T/C [4] of 53.4%. The viability, T/C [5] was 15.4%, the viability, T/C [6] was 0.11% and the viability, T/C [7] was 60%. It also gave a viability, T/C [8] of 57.1%, a viability, T/C [9] of 53.8% and a viability, T/C [10] of 50.2%. It also gave a viability, T/C [11] of 18.7%, a viability, T/C [12] of 0.1% and a viability, T/C [13] of 54.7%. The viability, T/C [14] was 50.5%, the viability, T/C [15] was 49.4% and the viability, T/C [16] was 48.1%. The viability, T/C [17] was 11%, the viability, T/C [18] was 0.1% and the viability, T/C [19] was 41.2%. For the same compound, the viability, T/C [20] was 44.9%, the viability, T/C [21] was 43.7% and the viability, T/C [22] was 40.5%. The viability, T/C [23] was 18.9%, the viability, T/C [24] was 0.1% and the viability, T/C [25] was 41.8%. The viability, T/C [26] was 42.1%, the viability, T/C [27] was 35% and the viability, T/C [28] was 39.3%. It also gave a viability, T/C [29] of 9.68% and a viability, T/C [30] of 0.15%.
In the case of `Cn1nccc1Nc1nccc(-c2ccn(C(CO)c3ccc(Cl)c(F)c3)c(=O)c2)n1` (stereo not given) + CC(C)NCC(C(=O)N1CCN(c2ncnc3c2C(C)CC3O)CC1)c1ccc(Cl)cc1, the IC50 (second compound 0.1 µM) is reported as 502 nM, the IC50 (second compound 0.316 µM) is reported as 97 nM and the IC50 (second compound 1 µM) is reported as less than 31.6 nM. The IC50 (second compound 3.16 µM) was less than 31.6 nM, the IC50 (second compound 10 µM) was less than 31.6 nM and the viability, T/C [1] was 67.3%. It also gave a viability, T/C [2] of 66.3%, a viability, T/C [3] of 49.8% and a viability, T/C [4] of 39.7%. The viability, T/C [5] was 50.3%, the viability, T/C [6] was 37.6% and the viability, T/C [7] was 64.7%. The viability, T/C [8] was 49.4%, the viability, T/C [9] was 36.5% and the viability, T/C [10] was 28%. It also gave a viability, T/C [11] of 32.5%, a viability, T/C [12] of 27.1% and a viability, T/C [13] of 45%. The viability, T/C [14] was 39.8%, the viability, T/C [15] was 21.7% and the viability, T/C [16] was 15.3%. For the same compound, the viability, T/C [17] was 12.3%, the viability, T/C [18] was 16% and the viability, T/C [19] was 38.2%. It also gave a viability, T/C [20] of 33%, a viability, T/C [21] of 16.4% and a viability, T/C [22] of 9.61%. For the same compound, the viability, T/C [23] was 9.49%, the viability, T/C [24] was 5.88% and the viability, T/C [25] was 32.5%. The viability, T/C [26] was 22.6%, the viability, T/C [27] was 29.5% and the viability, T/C [28] was 6.93%. The viability, T/C [29] was 4.16% and the viability, T/C [30] was 3.23%.
In the case of `Cn1ncnc1[C@H]1c2n[nH]c(=O)c3cc(F)cc(c23)N[C@@H]1c1ccc(F)cc1` + CC(C)NCC(C(=O)N1CCN(c2ncnc3c2C(C)CC3O)CC1)c1ccc(Cl)cc1, the IC50 (second compound 0.1 µM) is reported as greater than 100 nM, the IC50 (second compound 0.316 µM) is reported as greater than 100 nM and the IC50 (second compound 1 µM) is reported as greater than 100 nM. It also gave an IC50 (second compound 3.16 µM) of less than 0.316 nM, an IC50 (second compound 10 µM) of less than 0.316 nM and a viability, T/C (second compound 0.1 µM, first compound 0.000316 µM) of 91.9%. The viability, T/C (second compound 0.1 µM, first compound 0.001 µM) was 79.1%, the viability, T/C (second compound 0.1 µM, first compound 0.00316 µM) was 79.2% and the viability, T/C (second compound 0.1 µM, first compound 0.01 µM) was 91.9%. The viability, T/C [1] was 68.6%, the viability, T/C [2] was 73.4% and the viability, T/C (second compound 0.316 µM, first compound 0.000316 µM) was 73.5%. The viability, T/C (second compound 0.316 µM, first compound 0.001 µM) was 67.9%, the viability, T/C (second compound 0.316 µM, first compound 0.00316 µM) was 59.8% and the viability, T/C (second compound 0.316 µM, first compound 0.01 µM) was 65.7%. It also gave a viability, T/C [7] of 63.6%, a viability, T/C [8] of 58.3% and a viability, T/C (second compound 1 µM, first compound 0.000316 µM) of 60.1%. For the same compound, the viability, T/C (second compound 1 µM, first compound 0.001 µM) was 51.4%, the viability, T/C (second compound 1 µM, first compound 0.00316 µM) was 51% and the viability, T/C (second compound 1 µM, first compound 0.01 µM) was 53.5%. For the same compound, the viability, T/C [13] was 60.3%, the viability, T/C [14] was 51.9% and the viability, T/C (second compound 3.16 µM, first compound 0.000316 µM) was 47%. It also gave a viability, T/C (second compound 3.16 µM, first compound 0.001 µM) of 40.3%, a viability, T/C (second compound 3.16 µM, first compound 0.00316 µM) of 45.9% and a viability, T/C (second compound 3.16 µM, first compound 0.01 µM) of 42.9%. The viability, T/C [19] was 49.5%, the viability, T/C [20] was 46.1% and the viability, T/C (second compound 10 µM, first compound 0.000316 µM) was 42.8%. It also gave a viability, T/C (second compound 10 µM, first compound 0.001 µM) of 44.4%, a viability, T/C (second compound 10 µM, first compound 0.00316 µM) of 37.7% and a viability, T/C (second compound 10 µM, first compound 0.01 µM) of 45.9%. The viability, T/C [25] was 38% and the viability, T/C [26] was 37.2%.
